Measurements published in patent US11807625B2, “Capsid inhibitors for the prevention of HIV” (Gilead Sciences, Inc., priority 2019, dated 2023).
Read-outs that look alike come from different tables or passages of the source.

Test: PK of compound of Formula (Ia) after single subcutaneous dose of solution formulations in beagle dogs
Assay type: in vivo
Conditions: male, beagle, dog, plasma, sc, 12 mg/kg, mean ± SD
Description: Formulations containing the compound of Formula (Ia), or a pharmaceutically acceptable salt thereof, were prepared as solutions and optionally administered subcutaneously or intramuscularly to rats, rabbits, and/or dogs.
(§1) A solution of about 400 mg/mL of the compound of Formula (Ia) having 17.00 w/w % water, 36.40 w/w % PEG 300, 35.20 w/w % of a sodium salt of a compound of Formula (Ia), 5.00 w/w % ethanol, and 6.40 w/w % poloxamer 188 was prepared. The solution was administered subcutaneously to male beagle dogs at a dose level of about 12 mg/kg and male Wistar Han rats at a dose level of about 50 mg/kg. The pharmacokinetic profiles were determined, and the results for dogs are summarized in Table and Table, while the results for rats are summarized in Table and Table below.
as §1, with “500” for “400”, “14.06” for “17.00”, “30.12” for “36.40”
A solution of about 300 mg/mL of the compound of Formula (Ia) having 23.33 w/w % water, 48.99 w/w % PEG 300, 26.47 w/w % of a sodium salt of a compound of Formula (Ia), and 1.21 w/w % poloxamer 188 was prepared. The solution was administered subcutaneously to male beagle dogs at a dose level of about 6 mg/kg and male Wistar Han rats at a dose level of about 50 mg/kg. The pharmacokinetic profiles were determined, and the results for dogs are summarized in Table and Table, while the results for rats are summarized in Table and Table below.
as §1, with “18.80” for “17.00”, “40.25” for “36.40”, “34.38” for “35.20”, “1.57” for “6.40”
as §1, with “500” for “400”, “16.29” for “17.00”, “34.88” for “36.40”, “41.92” for “35.20”, “1.91” for “6.40”
as §1, with “20.90” for “17.00”, “44.72” for “36.40”, “and 34.38” for “35.20”, “(Ia)” for “(Ia), 5.00 w/w % ethanol, and 6.40 w/w % poloxamer 188”
A solution of about 400 mg/mL of the compound of Formula (Ia) having 19.90 w/w % water, 42.59 w/w % PEG 300, 34.38 w/w % of a sodium salt of a compound of Formula (Ia), and 3.13 w/w % poloxamer 188 was prepared. The solution was administered subcutaneously to male beagle dogs at a dose level of about 12 mg/kg and male Wistar Han rats at a dose level of about 50 mg/kg. […]

[1] = n = 3 dogs, SC 12 mg/kg, solution T, 400 mg/mL
[2] = n = 3 dogs, SC 12 mg/kg, solution U, 500 mg/mL

- AUC(0-t) (male beagle dogs, single SC 12 mg/kg, 400 mg/mL solution Z (3.13% poloxamer 188), n = 3, read-out: AUC0-3024 h): 175 ± 32 µM·h
- AUC(0-t) (male beagle dogs, single SC 12 mg/kg, 400 mg/mL solution Z (3.13% poloxamer 188), n = 3, read-out: AUC0-3696 h): 177 ± 31 µM·h
- Cmax (male beagle dogs, single SC 12 mg/kg, 500 mg/mL solution X (5.00% ethanol, 1.91% poloxamer 188), n = 3): 125 ± 95 nM
- AUC(0-t) (male beagle dogs, single SC 12 mg/kg, 500 mg/mL solution X (5.00% ethanol, 1.91% poloxamer 188), n = 3, read-out: AUC0-24 h): 0.663 ± 0.157 µM·h
- AUC(0-t) (male beagle dogs, single SC 12 mg/kg, 500 mg/mL solution X (5.00% ethanol, 1.91% poloxamer 188), n = 3, read-out: AUC0-168 h): 6.01 ± 1.87 µM·h
- AUC(0-t) (male beagle dogs, single SC 12 mg/kg, 500 mg/mL solution X (5.00% ethanol, 1.91% poloxamer 188), n = 3, read-out: AUC0-672 h): 46.1 ± 32.5 µM·h
- AUC(0-t) (male beagle dogs, single SC 12 mg/kg, 500 mg/mL solution X (5.00% ethanol, 1.91% poloxamer 188), n = 3, read-out: AUC0-1344 h): 90.8 ± 60 µM·h
- AUC(0-t) (male beagle dogs, single SC 12 mg/kg, 500 mg/mL solution X (5.00% ethanol, 1.91% poloxamer 188), n = 3, read-out: AUC0-1680 h): 106 ± 68 µM·h
- AUC(0-t) (male beagle dogs, single SC 12 mg/kg, 500 mg/mL solution X (5.00% ethanol, 1.91% poloxamer 188), n = 3, read-out: AUC0-2016 h): 116 ± 75 µM·h
- AUC(0-t) (male beagle dogs, single SC 12 mg/kg, 500 mg/mL solution X (5.00% ethanol, 1.91% poloxamer 188), n = 3, read-out: AUC0-2253 h): 124 ± 44 µM·h
- AUC(0-t) (male beagle dogs, single SC 12 mg/kg, 500 mg/mL solution X (5.00% ethanol, 1.91% poloxamer 188), n = 3, read-out: AUC0-2688 h): 130 ± 83 µM·h
- AUC(0-t) (male beagle dogs, single SC 12 mg/kg, 500 mg/mL solution X (5.00% ethanol, 1.91% poloxamer 188), n = 3, read-out: AUC0-3024 h): 135 ± 86 µM·h
- AUC(0-t) (male beagle dogs, single SC 12 mg/kg, 500 mg/mL solution X (5.00% ethanol, 1.91% poloxamer 188), n = 3, read-out: AUC0-4032 h): 145 ± 90 µM·h
- AUC(0-t) (male beagle dogs, single SC 12 mg/kg, 500 mg/mL solution X (5.00% ethanol, 1.91% poloxamer 188), n = 3, read-out: AUC0-4368 h): 148 ± 91 µM·h
- AUC(0-inf) [1]: 219 ± 54 µM·h
- Cmax [1]: 353 ± 148 nM
- Tmax [1]: 13 ± 8.54 days
- half-life [1]: 14.7 days
- AUC(0-t) (n = 3 dogs, SC 12 mg/kg, solution T, 400 mg/mL, read-out: AUC0-24 h): 2.64 ± 0.5 µM·h
- AUC(0-t) (n = 3 dogs, SC 12 mg/kg, solution T, 400 mg/mL, read-out: AUC0-168 h): 36 ± 26.2 µM·h
- AUC(0-t) (n = 3 dogs, SC 12 mg/kg, solution T, 400 mg/mL, read-out: AUC0-336 h): 76.1 ± 46.7 µM·h
- AUC(0-t) (n = 3 dogs, SC 12 mg/kg, solution T, 400 mg/mL, read-out: AUC0-672 h): 148 ± 51 µM·h
- AUC(0-t) (n = 3 dogs, SC 12 mg/kg, solution T, 400 mg/mL, read-out: AUC0-1334 h): 197 ± 48 µM·h
- AUC(0-t) (n = 3 dogs, SC 12 mg/kg, solution T, 400 mg/mL, read-out: AUC0-2016 h): 213 ± 53 µM·h
- AUC(0-t) (n = 3 dogs, SC 12 mg/kg, solution T, 400 mg/mL, read-out: AUC0-2352 h): 216 ± 54 µM·h
- AUC(0-inf) [2]: 141 ± 14 µM·h
- Cmax [2]: 175 ± 29 nM
- Tmax [2]: 14.3 ± 11.5 days
- half-life [2]: 18.3 days
- AUC(0-t) (n = 3 dogs, SC 12 mg/kg, solution U, 500 mg/mL, read-out: AUC0-24 h): 1.8 ± 0.85 µM·h
- AUC(0-t) (n = 3 dogs, SC 12 mg/kg, solution U, 500 mg/mL, read-out: AUC0-168 h): 12.9 ± 5.1 µM·h
- AUC(0-t) (n = 3 dogs, SC 12 mg/kg, solution U, 500 mg/mL, read-out: AUC0-336 h): 33.9 ± 14.2 µM·h
- AUC(0-t) (n = 3 dogs, SC 12 mg/kg, solution U, 500 mg/mL, read-out: AUC0-672 h): 78.5 ± 11.4 µM·h
- AUC(0-t) (n = 3 dogs, SC 12 mg/kg, solution U, 500 mg/mL, read-out: AUC0-1334 h): 118 ± 6 µM·h
- AUC(0-t) (n = 3 dogs, SC 12 mg/kg, solution U, 500 mg/mL, read-out: AUC0-2016 h): 133 ± 11 µM·h
- AUC(0-t) (n = 3 dogs, SC 12 mg/kg, solution U, 500 mg/mL, read-out: AUC0-2352 h): 136 ± 12 µM·h
- Cmax (n = 3 dogs, SC 12 mg/kg, solution W, 400 mg/mL): 200 ± 90 nM
- AUC(0-t) (n = 3 dogs, SC 12 mg/kg, solution W, 400 mg/mL, read-out: AUC0-24 h): 0.505 ± 0.194 µM·h
- AUC(0-t) (n = 3 dogs, SC 12 mg/kg, solution W, 400 mg/mL, read-out: AUC0-168 h): 6.82 ± 3.38 µM·h
- AUC(0-t) (n = 3 dogs, SC 12 mg/kg, solution W, 400 mg/mL, read-out: AUC0-672 h): 65.1 ± 43.1 µM·h
- AUC(0-t) (n = 3 dogs, SC 12 mg/kg, solution W, 400 mg/mL, read-out: AUC0-1344 h): 123 ± 54 µM·h
- AUC(0-t) (n = 3 dogs, SC 12 mg/kg, solution W, 400 mg/mL, read-out: AUC0-1680 h): 142 ± 50 µM·h
- AUC(0-t) (n = 3 dogs, SC 12 mg/kg, solution W, 400 mg/mL, read-out: AUC0-2016 h): 154 ± 47 µM·h
- AUC(0-t) (n = 3 dogs, SC 12 mg/kg, solution W, 400 mg/mL, read-out: AUC0-2253 h): 164 ± 44 µM·h
- AUC(0-t) (n = 3 dogs, SC 12 mg/kg, solution W, 400 mg/mL, read-out: AUC0-2688 h): 170 ± 42 µM·h
- AUC(0-t) (n = 3 dogs, SC 12 mg/kg, solution W, 400 mg/mL, read-out: AUC0-3024 h): 174 ± 41 µM·h
- AUC(0-t) (n = 3 dogs, SC 12 mg/kg, solution W, 400 mg/mL, read-out: AUC0-4032 h): 181 ± 39 µM·h
- AUC(0-t) (n = 3 dogs, SC 12 mg/kg, solution W, 400 mg/mL, read-out: AUC0-4368 h): 182 ± 38 µM·h
SMILES: CC(C)(C#Cc1ccc(-c2ccc(Cl)c3c(NS(C)(=O)=O)nn(CC(F)(F)F)c23)c([C@H](Cc2cc(F)cc(F)c2)NC(=O)Cn2nc(C(F)(F)F)c3c2C(F)(F)[C@@H]2C[C@H]32)n1)S(C)(=O)=O [compound of Formula (Ia)]
